Test results reported in PubChem BioAssay (NCI).
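96-well plates; 48 h exposure; 5 concentrations. Endpoints by linear interpolation between flanking doses. Not reached: highest tested concentration assigned. TGI is the concentration that stops growth completely.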

Tests used:
Experiment in all cases: NCI tumour cell line growth inhibition, 48 h
HL-60(TB) leukemia = system: HL-60(TB) leukemia
M14 melanoma = system: M14 melanoma
CAKI-1 renal = system: CAKI-1 renal
LOX IMVI melanoma = system: LOX IMVI melanoma
OVCAR-4 ovarian = system: OVCAR-4 ovarian
MCF7 breast = system: MCF7 breast
HCT-116 colon = system: HCT-116 colon
SR leukemia = system: SR leukemia
MDA-N = system: MDA-N
NCI-H460 lung = system: NCI-H460 lung
MOLT-4 leukemia = system: MOLT-4 leukemia
OVCAR-3 ovarian = system: OVCAR-3 ovarian
CCRF-CEM leukemia = system: CCRF-CEM leukemia
ACHN renal = system: ACHN renal
DU-145 prostate = system: DU-145 prostate
SK-MEL-5 melanoma = system: SK-MEL-5 melanoma
EKVX NSCLC = system: EKVX NSCLC
U251 CNS = system: U251 CNS
SF-295 CNS = system: SF-295 CNS
SF-268 CNS = system: SF-268 CNS
A498 renal = system: A498 renal
MALME-3M melanoma = system: MALME-3M melanoma
HCC-2998 colon = system: HCC-2998 colon
RXF 393 renal = system: RXF 393 renal
PC-3 prostate = system: PC-3 prostate
SNB-19 CNS = system: SNB-19 CNS
SK-MEL-2 melanoma = system: SK-MEL-2 melanoma
NCI/ADR-RES ovarian = system: NCI/ADR-RES ovarian
UO-31 renal = system: UO-31 renal
IGROV1 ovarian = system: IGROV1 ovarian
COLO 205 colon = system: COLO 205 colon
T-47D breast = system: T-47D breast
SN12C renal = system: SN12C renal
NCI-H522 lung = system: NCI-H522 lung
HT29 colon = system: HT29 colon
SK-MEL-28 melanoma = system: SK-MEL-28 melanoma
K-562 leukemia = system: K-562 leukemia
SK-OV-3 ovarian = system: SK-OV-3 ovarian
HCT-15 colon = system: HCT-15 colon
TK-10 renal = system: TK-10 renal
KM12 colon = system: KM12 colon
NCI-H23 lung = system: NCI-H23 lung
786-0 renal = system: 786-0 renal
NCI-H226 lung = system: NCI-H226 lung
RPMI-8226 leukemia = system: RPMI-8226 leukemia
UACC-62 melanoma = system: UACC-62 melanoma
MDA-MB-231 breast = system: MDA-MB-231 breast
HS 578T breast = system: HS 578T breast
SNB-75 CNS = system: SNB-75 CNS
HOP-92 NSCLC = system: HOP-92 NSCLC
OVCAR-5 ovarian = system: OVCAR-5 ovarian
A549 NSCLC = system: A549 NSCLC
OVCAR-8 ovarian = system: OVCAR-8 ovarian
BT-549 breast = system: BT-549 breast
HOP-62 NSCLC = system: HOP-62 NSCLC
SW-620 colon = system: SW-620 colon
UACC-257 melanoma = system: UACC-257 melanoma
SF-539 CNS = system: SF-539 CNS
MDA-MB-435 = system: MDA-MB-435

In the case of O=c1c2c3c(sc2nc(CN2CCNCC2)n1-c1ccccc1)CCCC3, the TGI (HL-60(TB) leukemia) is reported as > 100 µM, the TGI (M14 melanoma) is reported as > 100 µM and the TGI (CAKI-1 renal) is reported as > 100 µM. For the same molecule, the TGI (LOX IMVI melanoma) was > 100 µM, the TGI (OVCAR-4 ovarian) was 82.9 µM and the TGI (MCF7 breast) was > 100 µM. For the same molecule, the TGI (HCT-116 colon) was > 100 µM, the TGI (SR leukemia) was > 100 µM and the TGI (MDA-N) was > 100 µM. For the same molecule, the TGI (NCI-H460 lung) was > 100 µM, the TGI (MOLT-4 leukemia) was > 100 µM and the TGI (OVCAR-3 ovarian) was > 100 µM. For the same molecule, the TGI (CCRF-CEM leukemia) was > 100 µM, the TGI (ACHN renal) was > 100 µM and the TGI (DU-145 prostate) was > 100 µM. The TGI (SK-MEL-5 melanoma) was > 100 µM, the TGI (EKVX NSCLC) was > 100 µM and the TGI (U251 CNS) was > 100 µM. The TGI (SF-295 CNS) was > 100 µM, the TGI (SF-268 CNS) was > 100 µM and the TGI (A498 renal) was > 100 µM. The TGI (MALME-3M melanoma) was > 100 µM, the TGI (HCC-2998 colon) was > 100 µM and the TGI (RXF 393 renal) was > 100 µM. The TGI (PC-3 prostate) was > 100 µM, the TGI (SNB-19 CNS) was > 100 µM and the TGI (SK-MEL-2 melanoma) was > 100 µM. The TGI (NCI/ADR-RES ovarian) was > 100 µM, the TGI (UO-31 renal) was > 100 µM and the TGI (IGROV1 ovarian) was > 100 µM. For the same molecule, the TGI (COLO 205 colon) was > 100 µM, the TGI (T-47D breast) was > 100 µM and the TGI (SN12C renal) was > 100 µM. The TGI (NCI-H522 lung) was > 100 µM, the TGI (HT29 colon) was > 100 µM and the TGI (SK-MEL-28 melanoma) was > 100 µM. The TGI (K-562 leukemia) was > 100 µM, the TGI (SK-OV-3 ovarian) was > 100 µM and the TGI (HCT-15 colon) was > 100 µM. The TGI (TK-10 renal) was > 100 µM, the TGI (KM12 colon) was > 100 µM and the TGI (NCI-H23 lung) was > 100 µM. For the same molecule, the TGI (786-0 renal) was > 100 µM, the TGI (NCI-H226 lung) was > 100 µM and the TGI (RPMI-8226 leukemia) was > 100 µM. The TGI (UACC-62 melanoma) was > 100 µM, the TGI (MDA-MB-231 breast) was > 100 µM and the TGI (HS 578T breast) was > 100 µM. For the same molecule, the TGI (SNB-75 CNS) was > 100 µM, the TGI (HOP-92 NSCLC) was > 100 µM and the TGI (OVCAR-5 ovarian) was > 100 µM. The TGI (A549 NSCLC) was > 100 µM, the TGI (OVCAR-8 ovarian) was > 100 µM and the TGI (BT-549 breast) was > 100 µM. For the same molecule, the TGI (HOP-62 NSCLC) was > 100 µM, the TGI (SW-620 colon) was > 100 µM and the TGI (UACC-257 melanoma) was > 100 µM.
In the case of O=C(/C=C(\N=P(c1ccccc1)(c1ccccc1)c1ccccc1)C(F)(F)C(F)(F)C(F)(F)C(F)(F)C(F)(F)C(F)(F)C(F)(F)F)c1ccccc1, the TGI (HL-60(TB) leukemia) is reported as > 100 µM, the TGI (M14 melanoma) is reported as > 100 µM and the TGI (CAKI-1 renal) is reported as > 100 µM. The TGI (LOX IMVI melanoma) was > 100 µM, the TGI (OVCAR-4 ovarian) was > 100 µM and the TGI (MCF7 breast) was > 100 µM. For the same molecule, the TGI (HCT-116 colon) was > 100 µM, the TGI (SR leukemia) was > 100 µM and the TGI (MDA-N) was > 100 µM. The TGI (NCI-H460 lung) was > 100 µM, the TGI (MOLT-4 leukemia) was > 100 µM and the TGI (OVCAR-3 ovarian) was > 100 µM. The TGI (CCRF-CEM leukemia) was > 100 µM, the TGI (ACHN renal) was > 100 µM and the TGI (DU-145 prostate) was > 100 µM. For the same molecule, the TGI (SK-MEL-5 melanoma) was > 100 µM, the TGI (U251 CNS) was > 100 µM and the TGI (SF-295 CNS) was > 100 µM. The TGI (SF-268 CNS) was > 100 µM, the TGI (MALME-3M melanoma) was > 100 µM and the TGI (SF-539 CNS) was > 100 µM. For the same molecule, the TGI (HCC-2998 colon) was > 100 µM, the TGI (RXF 393 renal) was > 100 µM and the TGI (PC-3 prostate) was > 100 µM. For the same molecule, the TGI (SNB-19 CNS) was > 100 µM, the TGI (SK-MEL-2 melanoma) was > 100 µM and the TGI (NCI/ADR-RES ovarian) was > 100 µM. The TGI (UO-31 renal) was > 100 µM, the TGI (IGROV1 ovarian) was > 100 µM and the TGI (COLO 205 colon) was > 100 µM. For the same molecule, the TGI (MDA-MB-435) was > 100 µM, the TGI (T-47D breast) was > 100 µM and the TGI (SN12C renal) was > 100 µM. For the same molecule, the TGI (HT29 colon) was > 100 µM, the TGI (SK-MEL-28 melanoma) was > 100 µM and the TGI (K-562 leukemia) was > 100 µM. For the same molecule, the TGI (SK-OV-3 ovarian) was > 100 µM, the TGI (HCT-15 colon) was > 100 µM and the TGI (TK-10 renal) was > 100 µM. For the same molecule, the TGI (KM12 colon) was > 100 µM, the TGI (NCI-H23 lung) was > 100 µM and the TGI (786-0 renal) was > 100 µM. For the same molecule, the TGI (RPMI-8226 leukemia) was > 100 µM, the TGI (UACC-62 melanoma) was > 100 µM and the TGI (HS 578T breast) was > 100 µM. For the same molecule, the TGI (SNB-75 CNS) was > 100 µM, the TGI (HOP-92 NSCLC) was > 100 µM and the TGI (OVCAR-5 ovarian) was > 100 µM. The TGI (A549 NSCLC) was > 100 µM, the TGI (BT-549 breast) was > 100 µM and the TGI (HOP-62 NSCLC) was > 100 µM. For the same molecule, the TGI (SW-620 colon) was > 100 µM and the TGI (UACC-257 melanoma) was > 100 µM.
With O=C(Nc1ccccc1Cl)c1cc(S(=O)(=O)Nc2n[nH]c(=O)n2-c2ccccc2)c(S)cc1Cl the TGI (HL-60(TB) leukemia) was > 100 µM, the TGI (M14 melanoma) was > 100 µM and the TGI (CAKI-1 renal) was > 100 µM. For the same molecule, the TGI (LOX IMVI melanoma) was > 100 µM, the TGI (OVCAR-4 ovarian) was > 100 µM and the TGI (MCF7 breast) was > 100 µM. The TGI (SR leukemia) was > 100 µM, the TGI (MDA-N) was > 100 µM and the TGI (NCI-H460 lung) was > 100 µM. For the same molecule, the TGI (MOLT-4 leukemia) was > 100 µM, the TGI (OVCAR-3 ovarian) was > 100 µM and the TGI (CCRF-CEM leukemia) was > 100 µM. The TGI (DU-145 prostate) was > 100 µM, the TGI (SK-MEL-5 melanoma) was > 100 µM and the TGI (EKVX NSCLC) was > 100 µM. The TGI (U251 CNS) was > 100 µM, the TGI (SF-295 CNS) was > 100 µM and the TGI (SF-268 CNS) was > 100 µM. The TGI (A498 renal) was > 100 µM, the TGI (MALME-3M melanoma) was > 100 µM and the TGI (SF-539 CNS) was > 100 µM. For the same molecule, the TGI (HCC-2998 colon) was > 100 µM, the TGI (RXF 393 renal) was > 100 µM and the TGI (SNB-19 CNS) was > 100 µM. The TGI (SK-MEL-2 melanoma) was > 100 µM, the TGI (NCI/ADR-RES ovarian) was > 100 µM and the TGI (UO-31 renal) was > 100 µM. The TGI (IGROV1 ovarian) was > 100 µM, the TGI (COLO 205 colon) was > 100 µM and the TGI (MDA-MB-435) was > 100 µM. For the same molecule, the TGI (T-47D breast) was > 100 µM, the TGI (SN12C renal) was > 100 µM and the TGI (HT29 colon) was > 100 µM. The TGI (SK-MEL-28 melanoma) was > 100 µM, the TGI (SK-OV-3 ovarian) was > 100 µM and the TGI (HCT-15 colon) was > 100 µM. For the same molecule, the TGI (KM12 colon) was > 100 µM, the TGI (NCI-H23 lung) was > 100 µM and the TGI (786-0 renal) was > 100 µM. The TGI (NCI-H226 lung) was > 100 µM, the TGI (RPMI-8226 leukemia) was > 100 µM and the TGI (UACC-62 melanoma) was > 100 µM. For the same molecule, the TGI (MDA-MB-231 breast) was > 100 µM, the TGI (HS 578T breast) was > 100 µM and the TGI (HOP-92 NSCLC) was > 100 µM. For the same molecule, the TGI (OVCAR-5 ovarian) was > 100 µM, the TGI (OVCAR-8 ovarian) was > 100 µM and the TGI (BT-549 breast) was > 100 µM. For the same molecule, the TGI (HOP-62 NSCLC) was > 100 µM, the TGI (SW-620 colon) was > 100 µM and the TGI (UACC-257 melanoma) was > 100 µM.
